Source: the supplement of paper PMC10307832

How the values were obtained:
Assay in all cases: relative viability (nuclei count vs DMSO), 5 days (fraction); higher = more cells survive
ABC-1 = system: ABC-1
How it was run: (§1)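 A single step with final 0.05% Triton X-100, 1% formaldehyde and 1 ug/ml Hoechst fixed the cells and stained nuclei 5 days after treatment. Lung cancer cell lines in 1536-well plates had been treated by pin tool the day after seeding with one drug alone or a fixed anchor-drug dose plus five library-drug doses (not always all listed) in √10 steps, and nuclei were counted on 4× images. Relative viability is the ratio of nuclei in treated wells to nuclei in vehicle wells, taken as the median of duplicate plates.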

COR-L 105 = system: COR-L 105
How it was run: as §1

ChaGo-K-1 = system: ChaGo-K-1
How it was run: as §1

EMC-BAC-2 = system: EMC-BAC-2
How it was run: as §1

EPLC-272H = system: EPLC-272H
How it was run: as §1

HCC-15 = system: HCC-15
How it was run: as §1

HCC-78 = system: HCC-78
How it was run: as §1

HOP-62 = system: HOP-62
How it was run: as §1

LXF-289 = system: LXF-289
How it was run: as §1

NCI-H1666 = system: NCI-H1666
How it was run: as §1

NCI-H1755 = system: NCI-H1755
How it was run: as §1

NCI-H1915 = system: NCI-H1915
How it was run: as §1

NCI-H1975 = system: NCI-H1975
How it was run: as §1

NCI-H2023 = system: NCI-H2023
How it was run: as §1

NCI-H2085 = system: NCI-H2085
How it was run: as §1

NCI-H2126 = system: NCI-H2126
How it was run: as §1

NCI-H3122 = system: NCI-H3122
How it was run: as §1

NCI-H322M = system: NCI-H322M
How it was run: as §1

NCI-H358 = system: NCI-H358
How it was run: as §1

NCI-H441 = system: NCI-H441
How it was run: as §1

UMC-11 = system: UMC-11
How it was run: as §1

CCN(CC)CCCCNc1ncc2cc(-c3cc(OC)cc(OC)c3)c(NC(=O)NC(C)(C)C)nc2n1 + Nc1ncn([C@H]2C[C@H](O)[C@@H](CO)O2)c(=O)n1 [Decitabine] (partner 2 µM)
relative viability (ABC-1; first compound 0.03162 µM): 1.17 | relative viability (ABC-1; first compound 0.1 µM): 1.32 | relative viability (ABC-1; first compound 0.3162 µM): 1.06 | relative viability (ABC-1; first compound 1 µM): 1.05 | relative viability (COR-L 105; first compound 0.01 µM): 0.591 | relative viability (COR-L 105; first compound 0.03162 µM): 0.777 | relative viability (COR-L 105; first compound 0.1 µM): 0.692 | relative viability (COR-L 105; first compound 0.3162 µM): 0.786 | relative viability (COR-L 105; first compound 1 µM): 0.669 | relative viability (ChaGo-K-1; first compound 0.01 µM): 0.563 | relative viability (ChaGo-K-1; first compound 0.03162 µM): 0.516 | relative viability (ChaGo-K-1; first compound 0.1 µM): 0.54 | relative viability (ChaGo-K-1; first compound 0.3162 µM): 0.539 | relative viability (ChaGo-K-1; first compound 1 µM): 0.51 | relative viability (EMC-BAC-2; first compound 0.03162 µM): 1 | relative viability (EMC-BAC-2; first compound 0.1 µM): 0.938 | relative viability (EMC-BAC-2; first compound 0.3162 µM): 0.948 | relative viability (EMC-BAC-2; first compound 1 µM): 0.876 | relative viability (EPLC-272H; first compound 0.01 µM): 0.384 | relative viability (EPLC-272H; first compound 0.1 µM): 0.359 | relative viability (EPLC-272H; first compound 0.3162 µM): 0.378 | relative viability (EPLC-272H; first compound 1 µM): 0.331 | relative viability (HCC-15; first compound 0.01 µM): 0.691 | relative viability (HCC-15; first compound 0.03162 µM): 0.635 | relative viability (HCC-15; first compound 0.1 µM): 0.655 | relative viability (HCC-15; first compound 0.3162 µM): 0.68 | relative viability (HCC-15; first compound 1 µM): 0.51 | relative viability (HCC-78; first compound 0.01 µM): 0.697 | relative viability (HCC-78; first compound 0.03162 µM): 0.769 | relative viability (HCC-78; first compound 0.1 µM): 0.683 | relative viability (HCC-78; first compound 0.3162 µM): 0.666 | relative viability (HCC-78; first compound 1 µM): 0.636 | relative viability (HOP-62; first compound 0.01 µM): 0.243 | relative viability (HOP-62; first compound 0.03162 µM): 0.207 | relative viability (HOP-62; first compound 0.1 µM): 0.208 | relative viability (HOP-62; first compound 0.3162 µM): 0.207 | relative viability (HOP-62; first compound 1 µM): 0.268 | relative viability (LXF-289; first compound 0.01 µM): 0.336 | relative viability (LXF-289; first compound 0.03162 µM): 0.364 | relative viability (LXF-289; first compound 0.1 µM): 0.363 | relative viability (LXF-289; first compound 0.3162 µM): 0.424 | relative viability (LXF-289; first compound 1 µM): 0.377 | relative viability (NCI-H1666; first compound 0.01 µM): 0.695 | relative viability (NCI-H1666; first compound 0.03162 µM): 0.791 | relative viability (NCI-H1666; first compound 0.1 µM): 0.761 | relative viability (NCI-H1666; first compound 0.3162 µM): 0.759 | relative viability (NCI-H1666; first compound 1 µM): 0.79 | relative viability (NCI-H1755; first compound 0.01 µM): 0.72 | relative viability (NCI-H1755; first compound 0.03162 µM): 0.715 | relative viability (NCI-H1755; first compound 0.1 µM): 0.712 | relative viability (NCI-H1755; first compound 0.3162 µM): 0.756 | relative viability (NCI-H1755; first compound 1 µM): 0.685 | relative viability (NCI-H1915; first compound 0.01 µM): 0.24 | relative viability (NCI-H1915; first compound 0.03162 µM): 0.243 | relative viability (NCI-H1915; first compound 0.1 µM): 0.256 | relative viability (NCI-H1915; first compound 0.3162 µM): 0.242 | relative viability (NCI-H1915; first compound 1 µM): 0.266 | relative viability (NCI-H1975; first compound 0.01 µM): 0.396 | relative viability (NCI-H1975; first compound 0.03162 µM): 0.395 | relative viability (NCI-H1975; first compound 0.1 µM): 0.381 | relative viability (NCI-H1975; first compound 0.3162 µM): 0.389 | relative viability (NCI-H1975; first compound 1 µM): 0.358 | relative viability (NCI-H2023; first compound 0.01 µM): 0.221 | relative viability (NCI-H2023; first compound 0.03162 µM): 0.268 | relative viability (NCI-H2023; first compound 0.1 µM): 0.232 | relative viability (NCI-H2023; first compound 0.3162 µM): 0.236 | relative viability (NCI-H2023; first compound 1 µM): 0.206 | relative viability (NCI-H2085; first compound 0.01 µM): 0.559 | relative viability (NCI-H2085; first compound 0.03162 µM): 0.603 | relative viability (NCI-H2085; first compound 0.1 µM): 0.564 | relative viability (NCI-H2085; first compound 0.3162 µM): 0.533 | relative viability (NCI-H2085; first compound 1 µM): 0.549 | relative viability (NCI-H2126; first compound 0.01 µM): 0.555 | relative viability (NCI-H2126; first compound 0.03162 µM): 0.568 | relative viability (NCI-H2126; first compound 0.1 µM): 0.556 | relative viability (NCI-H2126; first compound 0.3162 µM): 0.603 | relative viability (NCI-H2126; first compound 1 µM): 0.63 | relative viability (NCI-H3122; first compound 0.01 µM): 0.493 | relative viability (NCI-H3122; first compound 0.03162 µM): 0.472 | relative viability (NCI-H3122; first compound 0.1 µM): 0.418 | relative viability (NCI-H3122; first compound 0.3162 µM): 0.448 | relative viability (NCI-H3122; first compound 1 µM): 0.42 | relative viability (NCI-H322M; first compound 0.01 µM): 0.691 | relative viability (NCI-H322M; first compound 0.03162 µM): 0.767 | relative viability (NCI-H322M; first compound 0.1 µM): 0.687 | relative viability (NCI-H322M; first compound 0.3162 µM): 0.696 | relative viability (NCI-H322M; first compound 1 µM): 0.663 | relative viability (NCI-H358; first compound 0.01 µM): 0.199 | relative viability (NCI-H358; first compound 0.03162 µM): 0.235 | relative viability (NCI-H358; first compound 0.1 µM): 0.227 | relative viability (NCI-H358; first compound 0.3162 µM): 0.24 | relative viability (NCI-H358; first compound 1 µM): 0.19 | relative viability (NCI-H441; first compound 0.01 µM): 0.118 | relative viability (NCI-H441; first compound 0.03162 µM): 0.265 | relative viability (NCI-H441; first compound 0.1 µM): 0.242 | relative viability (NCI-H441; first compound 0.3162 µM): 0.261 | relative viability (NCI-H441; first compound 1 µM): 0.244 | relative viability (UMC-11; first compound 0.01 µM): 0.724 | relative viability (UMC-11; first compound 0.03162 µM): 0.615 | relative viability (UMC-11; first compound 0.1 µM): 0.661 | relative viability (UMC-11; first compound 0.3162 µM): 0.592 | relative viability (UMC-11; first compound 1 µM): 0.592
